The values below come from US20100137342A1, “METHODS FOR TREATING VASCULAR […]” (Myriad Pharmaceuticals, Inc., priority 2007, published 2010).

Data set [1] has as its system human ovarian OVCAR-3 carcinoma cells. Put plainly: Vascular disruption effects in human tumor xenograft model (tumor histology, hematoxylin and eosin). The data set is classed as in vivo, mice. The note with it: 24 hours after dosing; for blood vessels in the necrotic areas / tumor necrosis pattern (central area of the tumors): OVCAR-3 xenograft in Crl:Nu/Nu-nuBR mice, 10 mg/kg compound or 100 mg/kg CA4P, H&E sections. The method, then: (4-Methoxy-phenyl)-methyl-(2-methyl-quinazolin-4-yl)-amine hydrochloride was tested in a human tumor xenograft model to determine its vascular disruption effects. Crl:Nu/Nu-nuBR mice were grown and injected with 1×10^7 human ovarian OVCAR-3 carcinoma cells on the right flank and allowed to grow to various tumor volumes. Mice were then dosed with either vehicle, 100 mg/kg combretastatin A-4 phosphate (CA4P) (obtained from Toronto Research Chemicals, Ontario, Canada) or 10 mg/kg (4-Methoxy-phenyl)-methyl-(2-methyl-quinazolin-4-yl)-amine hydrochloride.
Animals were housed by groups in Positive Individual Ventilation (PIV) cages in flat-bottom cages (Thoren Caging Systems, Hazelton, Pa.) with no more than ten mice per cage. Cages contained autoclaved TEK-Fresh bedding (Harlan, Indianapolis, Ind.), which was changed every seven days. Environmental controls were set to maintain a temperature between 65° F. and 75° F. with a relative humidity of 30-70% in a 12:12 hour light:dark cycle. Animals were feed gamma-irradiated 2019 rodent chow ad libitum (Harlan, Indianapolis, Ind.). Tap water was sterilized using manufacture recommended conditions and supplied via an automated watering system ad libitum (Edstrom Industries, Waterford, Wis.). Twenty four hours after dosing, mice were sacrificed and tumors and hearts removed, fixed, sectioned and stained with hematoxylin and eosin Y (each obtained from Richard Allen Scientific, Kalamazoo, Mich.).
A general note: In xenograft studies the graft and the host belong to different species.

Data set [2] is described as follows: Phase I clinical trial, weekly intravenous administration, subjects with refractory solid tumors. The format is in vivo, human. The settings on record: Phase 1, i.v. weekly x3 per 4 week cycle, 0.3-3.3 mg/m^2. The method, then: An open-label, dose-escalating, multiple-dose study to define the safety, tolerability and phamacokinetics of weekly intravenous administration of (4-Methoxy-phenyl)-methyl-(2-methyl-quinazolin-4-yl)-amine hydrochloride was performed. A dosing schedule (each 4 week cycle) was performed for (4-Methoxy-phenyl)-methyl-(2-methyl-quinazolin-4-yl)-amine hydrochloride weekly for 3 weeks with no infusion on the fourth week of each cycle. Subjects with refractory solid tumors were enrolled in cohorts of 3. During Cycle 1, subjects were hospitalized during each infusion of (4-Methoxy-phenyl)-methyl-(2-methyl-quinazolin-4-yl)-amine hydrochloride and remained for observation and safety evaluation for approximately 24 hours following the end of the infusion. All subject had continuous telemetry for 2 hours prior to infusion, for 1-2 hour infusion and for 3 hours after the end of the infusion. Any clinically significant electrocardiographic (ECG) wave form abnormality was recorded and prolongation of the monitoring period extended at the discretion of the principal investigator.
Electrocardiograms were obtained prior to starting the infusion and within 30 minutes of the end of infusion for each infusino of the first cycle. Electrocardiograms on Day 1 were obtained in triplicate 5 minutes apart.
Neurocognitive assessments were made by administration of the Mini-Mental State Examination (MMSE), the Hopkins Verbal Learning and timed Grooved Pegboard tests before administration of the intravenous infusion and approximately 24 hours of the infusion at each weekly administration of the first cycle.
On days 1, 8, and 15 of each cycle, vital signs were obtained prior to the first dose, at 15, 30, and 60 minutes after the initiation of the infusion, and at 0.5, 1, 1.5, 2, and 4 hours after the end of the intravenous infusion. Vital signs at all time points beyond the start of the intravenous infusion included heart rate, blood pressure and respirations. Temperature ws measured at the end of the infusion and 4 hours later.
Individual subjects were allowed to continue on repeated weekly×3 administrations every 28 days with no dose increase provided there was no unacceptable toxicity or disease progression.
Tumor response was evaluated by response evaluation criteria in solid tumors (RECIST) criteria. To prevent sever hypersensitivity reactions due to Cremophor® EL, subjects were premedicated with oral dexamethasone (20 mg) administered approximately 12 and 6 hours before the intravenous infusion with (4-Methoxy-phenyl)-methyl-(2-methyl-quinazolin-4-yl)-amine hydrochloride, diphenhydramine (50 mg) or its equivalent administered intravenously 30-60 minutes before (4-Methoxy-phenyl)-methyl-(2-methyl-quinazolin-4-yl)-amine hydrochloride, and cimetidine (300 mg) or ranitidine (50 mg) administered intravenously 30-60 minutes before (4-Methoxy-phenyl)-methyl-(2-methyl-quinazolin-4-yl)-amine hydrochloride.

Structures can show the parent of a compound that is named as a salt.

As to `COc1ccc(/C=C\c2cc(OC)c(OC)c(OC)c2)cc1OP(=O)(O)O` [CA4P, combretastatin A-4 phosphate, reference compound], in data set [1], the “blood vessels in the necrotic areas” value is “consistently congested with perivascular hemorrhage” and the “tumor necrosis pattern (central area of the tumors)” value was “extensive necrosis with a rim of viable tumor tissue around the periphery”.
`COc1ccc(N(C)c2nc(C)nc3ccccc23)cc1` [(4-Methoxy-phenyl)-methyl-(2-methyl-quinazolin-4-yl)-amine hydrochloride]: in data set [1], the “blood vessels in the necrotic areas” value is on record as “consistently congested with perivascular hemorrhage” and the “tumor necrosis pattern (central area of the tumors)” value is given as “extensive necrosis with a rim of viable tumor tissue around the periphery”. Moreover, the “degree of necrosis compared with CA4P treated animals” value in data set [1] (OVCAR-3 xenograft, 10 mg/kg compound vs 100 mg/kg CA4P) is reported as “degree of necrosis appeared greater”. In data set [2], the bradycardia result is given as “occasional episodes of bradycardia”; the dose limiting toxicity entry was “vascular in nature, manifested by an acute coronary syndrome”; the intratumor bleeding entry is on record as “incidences of intratumor bleeding”; the “overall safety and tolerability” value was “safe and tolerable”. Besides, in data set [2], the peripheral cytotoxicity result is given as “no evidence of cytotoxity peripherally” and the systolic blood pressure result is “dose-related increase”. In data set [2] (ECG), the “effects on cardiac conduction (PR, QRS or QTc)” value is given as “no significant effects”.
